Values of other authors in paper PMC11237654, “Optimization of quenched fluorescent peptide substrates of SARS-CoV-2 3CL^pro main protease (Mpro) from proteomic identification of P6—P6' active site specificity” (Journal of Virology, 2024).
Square brackets hold non-standard residues; d marks the D form. * marks the point of attachment. ACC = NC(=O)Cc1cc(=O)oc2cc(N*)ccc12; Tle = CC(C)(C)[C@H](N)C(=O)O; Abu = CC[C@H](N)C(=O)O

Target: SARS-CoV-2 3CL^pro (Severe acute respiratory syndrome coronavirus 2, UniProt P0DTD1, Q3569A)
Settings: cited from earlier work

Q: With Ac-[Abu][Tle]LQ-{ACC} as the substance, how does the kcat/KM read?
A: 859 M⁻¹ s⁻¹
